Experimental data taken from US12545668B2, “Cyclic amine derivative as agent for promoting advillin function, and novel cyclic amine derivative and pharmaceutical use thereof” (Toray Industries, Inc., priority 2018, dated 2026).

Tested on: primary cultured cells of rat dorsal root ganglion
Experiment: Axon (neurite) extension in primary cultured cells of rat dorsal root ganglion with oxaliplatin-induced axonal injury
Format: cell-based
Conditions: oxaliplatin alone 3 μM, 7 days; p<0.05
Text: The effect of the cyclic amine derivative (I) or a pharmacologically acceptable salt thereof on neurite extension in primary cultured cells of rat dorsal root ganglion was examined.
Male SD rats (manufactured by Charles River Laboratories Japan, Inc.) of 4 to 7 weeks old were used. Each rat was anesthetized by intraperitoneally administering urethane. After confirming that the rat was anesthetized, the rat was rapidly euthanized by exsanguination from the abdominal aorta. After incision of the dorsal part, the spinal column was excised and cooled on ice. The dorsal side of the spinal column was cut off, and the spinal cord was removed from the ventral side of the spinal column to expose the dorsal root ganglia on the ventral side of the spinal column. The dorsal root ganglia (L3 to 6, right and left) were excised with tweezers, and dipped in ice-cold Leibovitz's L-15 medium (manufactured by Thermo Fisher Scientific), and the bundles of nerve fibers were removed under a stereoscopic microscope. The dorsal root ganglia from which the bundles of nerve fibers had been removed were made fine slits with ophthalmic scissors to be used as dorsal root ganglion pieces.
The dorsal root ganglion pieces were dipped in about 3 mL of a solution of collagenase A (manufactured by Roche Molecular Systems, Inc.), followed by incubation at 37° C. for 20 minutes. After the incubation, the resultant was centrifuged at 200×g at 25° C. for 5 minutes to remove a collagenase A solution corresponding to the supernatant. About 1 mL of a solution of trypsin was added thereto, followed by incubation at 37° C. for 5 minutes. Subsequently, about 3 mL of DMEM (manufactured by Thermo Fisher Scientific K.K.) containing 10% fetal bovine serum was added to the resultant, the resultant centrifuged at 200×g at room temperature for 5 minutes, and then the supernatant removed. […]

SMILES	length of a neurite compared to the non-treated group
O=C1[O][Pt]2([NH][C@@H]3CCCC[C@H]3[NH]2)[O]C1=O [oxaliplatin, reference compound]	significantly reduced

Tested on: F11 cells (rat dorsal root ganglion neuron cell line)
Experiment: Effect of decreasing intracellular actin filaments in F11 cells with oxaliplatin-induced axonal injury (phalloidin staining)
Format: cell-based
Conditions: F-11 rat/mouse fusion cell line, F11, 120 h, compound 10 μM with oxaliplatin 15 μM, 5 days; compared to oxaliplatin alone treated group; average of five samples; read-out: Decreasing Rate of Intracellular Actin Filament (%)
Text: The effect of the cyclic amine derivative (I) or a pharmacologically acceptable salt thereof on the amount of intracellular actin filaments in F11 cells (rat dorsal root ganglion neuron cell line) was examined.
As test compounds, the compounds of Examples 1, 2, 3, 4, 5, 6, 7, 8, and 9 were used.
As compounds of comparative examples, 1-(4-(dimethylamino)piperidin-1-yl)-3-(1-ethyl-1H-imidazol-2-yl)-3-hydroxypropan-1-one (hereinafter, the compound of Comparative Example 1), 1-(4-(dimethylamino)piperidin-1-yl)-3-hydroxy-3-(1-(2,2,2-trifluoroethyl)-1H-imidazol-2-yl)propan-1-one (hereinafter, the compound of Comparative Example 2), 1-((R)-3-(dimethylamino)pyrrolidin-1-yl)-3-hydroxy-3-(1-methyl-1H-imidazol-2-yl)propan-1-one (hereinafter, the compound of Comparative Example 3), and 1-((R)-[…]-3-hydroxy-3-(1-methyl-1H-imidazol-2-yl)propan-1-one (hereinafter, the compound of Comparative Example 4) shown in Table 4 were used. The compounds of Comparative Examples 1, 2, 3, and 4 were synthesized in accordance with methods described in International Publication No. WO2016/136944.
For peeling the F11 cells off from a culture flask, 0.25% Trypsin/EDTA (manufactured by Thermo Fisher Scientific K.K.) was added to the cells, followed by incubation at room temperature for several minutes. Thereafter, 10% fetal bovine serum-containing DMEM medium (manufactured by Thermo Fisher Scientific K.K.) was added thereto for suspension, and the resultant centrifuged at 1,500 rpm for 1 minute. After removing the resultant centrifugal supernatant, 0.5% fetal bovine serum-containing DMEM medium was added thereto for suspending cells therein, and the resultant seeded in a poly-D-lysine-coated 96 well plate (manufactured by BD Biosciences) coated with laminin (2 μg/cm^2, manufactured by Sigma Aldrich) to be cultured at 37° C. under an environment of 5% CO2. Two hours after seeding the cells, N,N-dibutyladenosine 3′,5′-phosphate (final concentration 1 mM, manufactured by Sigma Aldrich) and recombinant rat GDNF (final concentration 50 ng/mL, manufactured by PeproTech) were added thereto to culture the cells at 37° C. under an environment of 5% CO2 for 7 days for differentiation.
Seven days after starting the culture, the medium was exchanged with 0.5% fetal bovine serum-containing DMEM medium containing oxaliplatin (final concentration 15 μM), and the resultant cultured for 5 days to induce axonal injury. Each of the compounds of Examples and Comparative Examples was caused to be contained in the medium (final concentration 10 μM) for treatment in the same manner as oxaliplatin.
Five days after treatment with oxaliplatin and each of the compounds, the resultant cells were washed with PBS(−) three times, a 4% paraformaldehyde-phosphate buffer (manufactured by Wako Pure Chemical Industries Ltd.) was added thereto, and the resultant allowed to stand still at room temperature for 10 minutes to fix the cells. Acti-stain 670 phalloidin (manufactured by Cytoskeleton Inc.) was added thereto, and the resultant incubated at room temperature for 30 minutes to stain actin filaments. An image of the cells was acquired using IN Cell Analyzer 2200 (manufactured by GE Healthcare), and the image analyzed using IN Cell Investigator Developer Toolbox. The amount of intracellular actin filaments was indicated by the amount of fluorescence (density) of fluorescent-labeled phalloidin binding to the actin filaments.
In a group treated with oxaliplatin alone (hereinafter, the oxaliplatin alone treated group), the amount of intracellular actin filaments increased by 5% compared to that in a group not treated with oxaliplatin. […] A decreasing rate of intracellular actin filaments, caused by each compound compared to the amount of intracellular actin filaments of the oxaliplatin alone treated group was calculated. […]

SMILES	inhibition at 10 µM [%]
CN(C)[C@@H]1CCCN(C(=O)CC(O)c2nccn2C)C1 (stereo partly shown) [Comparative Example 4, reference compound]	≤ 5
CC(C)n1ccnc1C(O)CC(=O)N1CCC(N(C)C)CC1 (stereo not shown) [Example 3, 1-(4-(dimethylamino)piperidin-1-yl)-3-(1-isopropyl-1H-imidazol-2-yl)-3-hydroxypropan-1-one]	≥ 5
CN(C)C1CCN(C(=O)CC(O)c2ncc(Cl)n2C)CC1 (stereo not shown) [Example 4, 3-(5-chloro-1-methyl-1H-imidazol-2-yl)-1-(4-(dimethylamino)piperidin-1-yl)-3-hydroxypropan-1-one]	≥ 5
Cn1ccnc1C(O)CC(=O)N1CCC(N2CCOCC2)CC1 (stereo not shown) [Example 1, 3-hydroxy-3-(1-methyl-1H-imidazol-2-yl)-1-(4-morpholinopiperidin-1-yl)propan-1-one]	≥ 5
CN1CCN(C2CCN(C(=O)CC(O)c3nccn3C)CC2)CC1 (stereo not shown) [Example 8, 3-hydroxy-3-(1-methyl-1H-imidazol-2-yl)-1-(4-(4-methylpiperazin-1-yl)piperidin-1-yl)propan-1-one]	≥ 5
CN(C)C1CCN(C(=O)CC(O)c2nccn2CC(F)(F)F)CC1 (stereo not shown) [Comparative Example 2, 1-(4-(dimethylamino)piperidin-1-yl)-3-hydroxy-3-(1-(2,2,2-trifluoroethyl)-1H-imidazol-2-yl)propan-1-one, reference compound]	≤ 5
COCCn1ccnc1C(O)CC(=O)N1CCC(N(C)C)CC1 (stereo not shown) [Example 5, 1-(4-(dimethylamino)piperidin-1-yl)-3-(1-(2-methoxyethyl)-1H-imidazol-2-yl)-3-hydroxypropan-1-one]	≥ 5
CN(C)C1CCN(C(=O)CC(O)c2nccn2CCC(F)(F)F)CC1 (stereo not shown) [Example 6, 1-(4-(dimethylamino)piperidin-1-yl)-3-(1-(3,3,3-trifluoropropyl)-1H-imidazol-2-yl)-3-hydroxypropan-1-one]	≥ 5

Same assay, conditions: oxaliplatin alone 15 μM, 5 days; p<0.05

SMILES	increase of the amount of intracellular actin filaments compared to a group not treated with oxaliplatin [%]
O=C1[O][Pt]2([NH][C@@H]3CCCC[C@H]3[NH]2)[O]C1=O [oxaliplatin, reference compound]	5
